Patent publication US5428019A, “Bombesin analogs” (Merrell Dow Pharmaceuticals Inc., priority 1994, dated 1995)
Like-named read-outs stand apart in the source and are kept apart here. Where a SMILES comes first, the peptide text is derived from it. [ ]: non-standard residue; d: D form. The star is where a group is joined. X1 = CC(C)C[C@@H](C(N)=O)N(C)C[C@H](Cc1ccccc1)N*; X2 = CC(C)C[C@@H](CN[C@@H](CC(C)C)C(N)=O)N*; Palmitoyl = CCCCCCCCCCCCCCCC(=O)*; pGlu = O=C1CC[C@@H](C(=O)O)N1; Lauroyl = CCCCCCCCCCCC(=O)*; Octanoyl = CCCCCCCC(=O)*

Legend:
Bombesin Receptor = target: T1, Bombesin Receptor (Mus musculus, UniProt P21729); test: Phosphatidylinositol turnover in chopped mouse pancreas; assay type: cell-based; parameters: key to PI Turnover Agonist: (+) represents agonist activity; (-) indicates no agonist activity; conditions: for PI Turnover % Inhibition: antagonist activity, referenced to the stimulation produced by 100 nM GRP
T1 construct: Pancreata from mice were chopped at 350 μm with a tissue chopper and pooled; from tissue; host or cells: chopped mouse pancreas
Method: Pancreata from mice were chopped at 350 μm with a tissue chopper and pooled. The chopped tissue was washed twice with oxygenated Krebs-Hepes, then incubated for 30 minutes in 37° C. oxygenated Krebs-Hepes buffer with fresh buffer after 15 minutes. The tissue was then incubated in this buffer containing 200 μCi of [^3 H] inositol at 37° C. for 1 hour. The tissue was then washed twice and incubated for another 30 minutes in oxygenated Krebs-Hepes (containing 10 mM Li^+) at 37° C. with a fresh buffer change after 15 minutes. Portions of the tissue mass (approximately 10 mg per assay tube) were then placed in Li^+ buffer with protease inhibitors, (40 μg/ml bacitracin, 4 μg/ml leupeptin, 4 μg/ml chymostatin, 8 μg/ml thiorphan), 0.1% BSA, and 0.1-10 μM peptide in a final volume of 250 μl. After 60 minutes at room temperature, the phosphatidylinositol turnover was terminated by the addition of 940 μl chloroform:methanol (1:2), followed by 310 μl chloroform, followed by 310 μl water. Each tube was then vortexed for 5 seconds and then centrifuged at 2500 x g for 10 minutes to separate the phases. 50 μl of the bottom phase (chloroform) was withdrawn from each tube and placed in a counting vial, dried, and counted in scintillation fluid. 900 μl of the top (aqueous) phase were then mixed with 2.1 ml water and loaded onto a 0.5 ml Biorad AG-1X8 (formate) ion exchange column. The material on the columns was washed in order with: 1) 10 ml of water 2) 5 ml of 5 mM disodium tetraborate/60 mM sodium formate 3) 10 ml of 1 M ammonium formate in 0.1 M formic acid. The final (third) wash was collected and one ml was mixed with 14 ml of Bio-Safe scintillant and counted. The ratio of these counts (total inositol phosphates) to the corresponding organic phase counts (inositol incorporated into the tissue) was then calculated for each sample. The ratios in the presence of test compound and/or standards were then compared to the ratios for control tubes (i.e., no stimulating agonist). The abilities of test compounds to stimulate phosphatidyl-inositol turnover were determined with the aid of a computer program. […] The ordinate (y-axis) indicates the observed PI turnover as a percentage of control. Values are mean±standard error of triplicate determinations.

bombesin/GRP receptor = target: T2, bombesin/GRP receptor (Mus musculus, UniProt P21729); test: Competition for 125I-GRP binding to murine pancreatic membranes
T2 construct: The pancreata from one or more mice were pooled and homogenized; from tissue; host or cells: mouse pancreas membranes
Method: The pancreata from one or more mice were pooled and homogenized in 50 mM HEPES (pH 7.4) containing 120 mM NaCl, 5 mM KCl, 1 mM EDTA and protease inhibitors (1 μg/ml aprotinin, leupeptin, pepstatin; 4 μg/ml bacitracin, antipain, bestatin; 100 μM PMSF) at 4° C. and centrifuged at 37,500 X g for 15 minutes. The pellet was resuspended in 50 mM HEPES (pH 7.4) containing 10 mM EDTA, 300 mM KCl, and protease inhibitors, and then incubated for 30 minutes at 4° C. The suspension was centrifuged as above and the pellet was washed two times in 50 mM HEPES (pH 7.4) containing 8 μg/ml thiorphan and protease inhibitors, and again centrifuged. The tissue was then resuspended in incubation buffer (1 ml per 4 mg pancreas) and incubated for 15 minutes at room temperature, then 250 μl were added to each assay tube to commence the assay. […] The assay was allowed to proceed to equilibrium for 90 minutes at room temperature. After this time, the contents of each tube was rapidly filtered over Whatman GF/B filters presoaked in 0.1% polyethyleneimine and the filters were rapidly washed three times with ice-cold 50 mM HEPES (pH 7.4). Filter-bound radioactivity was quantitated in a gamma counter. […] Affinity and maximal binding were calculated with LIGAND (Biosoft, Cambridge, UK) (FIGS. 1 and FIG. 2)
The abscissa (x-axis) logarithmically indicates the concentration of agonists being tested.

[1] = competitive binding, mouse pancreas, averages of multiple experiments, read-out: Kd

T1 sequence (P21729 whole entry): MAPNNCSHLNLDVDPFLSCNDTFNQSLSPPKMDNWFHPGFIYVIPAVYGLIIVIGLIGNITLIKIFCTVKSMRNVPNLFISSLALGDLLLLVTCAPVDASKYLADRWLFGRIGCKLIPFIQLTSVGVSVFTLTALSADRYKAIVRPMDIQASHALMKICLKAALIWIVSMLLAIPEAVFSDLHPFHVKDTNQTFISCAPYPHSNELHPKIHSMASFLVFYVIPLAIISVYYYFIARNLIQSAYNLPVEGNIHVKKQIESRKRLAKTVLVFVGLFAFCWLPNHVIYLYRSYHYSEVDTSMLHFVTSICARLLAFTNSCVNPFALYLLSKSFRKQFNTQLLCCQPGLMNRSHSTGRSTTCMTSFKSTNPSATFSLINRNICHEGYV
T2 sequence (P21729 whole entry): as above

CC(C)C[C@@H](CN[C@@H](CC(C)C)C(N)=O)NC(=O)[C@H](Cc1c[nH]cn1)NC(=O)CNC(=O)[C@@H](NC(=O)[C@H](C)NC(=O)[C@H](Cc1c[nH]c2ccccc12)NC(=O)[C@H](CCC(N)=O)NC(=O)[C@H](CC(N)=O)NC(=O)CNC(=O)[C@H](CC(C)C)NC(=O)[C@H](CCCNC(=N)N)NC(=O)[C@H](CCC(N)=O)NC(=O)[C@@H]1CCC(=O)N1)C(C)C [[Leu^13 .psi.{CH2 NH]Leu^14]bombesin, pGlu--Gln--Arg--Leu--Gly--Asn--Gln--Trp--Ala--Val--Gly--His--Leu.psi.[CH2 N]Leu--NH2, reference compound] ([pGlu]QRLGNQWAVGH-X2)
PI Turnover % Inhibition (Bombesin Receptor): 30%

CCCCCCCC(=O)N[C@@H](CCC(N)=O)C(=O)N[C@@H](Cc1c[nH]c2ccccc12)C(=O)N[C@@H](C)C(=O)N[C@H](C(=O)N[C@H](C)C(=O)N[C@@H](Cc1c[nH]cn1)C(=O)N[C@@H](CC(C)C)C(N)=O)C(C)C [Octanoyl[D-Ala^11]bombesin(7-13)amide, Nα-octyl-Gln--Trp--Ala--Val-D-Ala--His--Leu--NH2] (Octanoyl-QWAV[dA]HL-NH2; N-terminus and C-terminus assumed)
PI Turnover Agonist (Bombesin Receptor): -

CC(C)C[C@@H](C(N)=O)[S+]([O-])C[C@H](Cc1ccccc1)NC(=O)[C@H](Cc1c[nH]cn1)NC(=O)CNC(=O)[C@@H](NC(=O)[C@H](C)NC(=O)[C@H](Cc1c[nH]c2ccccc12)NC(=O)[C@H](CCC(N)=O)NC(=O)[C@@H]1CCC(=O)N1)C(C)C (single isomer, unassigned) [[Phe^8 .psi.[CH2 S(O)]Leu^9]litorin II, pGlu--Gln--Trp--Ala--Val--Gly--His--Phe.psi.[CH2 S(O)]Leu--NH2]
Kd (bombesin/GRP receptor; [1]): 1 nM

CC(=O)N[C@@H](CCC(N)=O)C(=O)N[C@@H](Cc1c[nH]c2ccccc12)C(=O)N[C@@H](C)C(=O)N[C@H](C(=O)N[C@H](C)C(=O)N[C@@H](Cc1c[nH]cn1)C(=O)N[C@@H](CC(C)C)C(N)=O)C(C)C [Acetyl[D-Ala^11]bombesin(7-13)amide, Nα-acetyl-Gln--Trp--Ala--Val-D-Ala--His--Leu--NH2] (Ac-QWAV[dA]HL-NH2)
PI Turnover Agonist (Bombesin Receptor): - | PI Turnover % Inhibition (Bombesin Receptor): 24%

CCCCCCCCCCCCCCCC(=O)N[C@@H](CCC(N)=O)C(=O)N[C@@H](Cc1c[nH]c2ccccc12)C(=O)N[C@@H](C)C(=O)N[C@H](C(=O)N[C@H](C)C(=O)N[C@@H](Cc1c[nH]cn1)C(=O)N[C@@H](CC(C)C)C(N)=O)C(C)C [Palmityl[D-Ala^11]bombesin(7-13)amide, Nα-palmityl-Gln--Trp--Ala--Val-D-Ala--His--Leu--NH2] (Palmitoyl-QWAV[dA]HL-NH2)
PI Turnover % Inhibition (Bombesin Receptor): 45%

CCCCCCCCCCCC(=O)N[C@@H](CCC(N)=O)C(=O)N[C@@H](Cc1c[nH]c2ccccc12)C(=O)N[C@@H](C)C(=O)N[C@H](C(=O)N[C@H](C)C(=O)N[C@@H](Cc1c[nH]cn1)C(=O)N[C@@H](CC(C)C)C(N)=O)C(C)C [Lauryl[D-Ala^11]bombesin(7-13)amide, Nα-lauryl-Gln--Trp--Ala--Val-D-Ala--His--Leu--NH2] (Lauroyl-QWAV[dA]HL-NH2)
PI Turnover % Inhibition (Bombesin Receptor): 53%

CC(C)C[C@@H](C(N)=O)[S+]([O-])C[C@H](Cc1ccccc1)NC(=O)[C@H](Cc1c[nH]cn1)NC(=O)CNC(=O)[C@@H](NC(=O)[C@H](C)NC(=O)[C@H](Cc1c[nH]c2ccccc12)NC(=O)[C@H](CCC(N)=O)NC(=O)[C@@H]1CCC(=O)N1)C(C)C (single isomer, unassigned) [[Phe^8 .psi.[CH2 S(O)]Leu^9 ]litorin II] [pGlu--Gln--Trp--Ala--Val--Gly--His--Phe.psi.[CH2 S(O)]Leu--NH2]
PI Turnover % Inhibition (Bombesin Receptor): 83%

CC(C)C[C@H](SC[C@H](Cc1ccccc1)NC(=O)[C@H](Cc1c[nH]cn1)NC(=O)CNC(=O)[C@@H](NC(=O)[C@H](C)NC(=O)[C@H](Cc1c[nH]c2ccccc12)NC(=O)[C@H](CCC(N)=O)NC(=O)[C@@H]1CCC(=O)N1)C(C)C)C(N)=O [[Phe^8 .psi.[CH2 S]Leu^9]litorin, pGlu--Gln--Trp--Ala--Val--Gly--His--Phe.psi.[CH2 S]Leu--NH2]
PI Turnover % Inhibition (Bombesin Receptor): 42%

CSCC[C@H](NC(=O)[C@H](Cc1ccccc1)NC(=O)[C@H](Cc1c[nH]cn1)NC(=O)CNC(=O)[C@@H](NC(=O)[C@H](C)NC(=O)[C@H](Cc1c[nH]c2ccccc12)NC(=O)[C@H](CCC(N)=O)NC(=O)[C@@H]1CCC(=O)N1)C(C)C)C(N)=O [Litorin, pGlu--Gin--Trp--Ala--Val--Gly--His--Phe--Met--NH2, reference compound]
Kd (bombesin/GRP receptor; [1]): 0.075 nM | Kd (bombesin/GRP receptor; triplicate, in the presence of 40 pM 125I-GRP, LIGAND fit, read-out: Kd, single class of sites (FIG. 2)): 0.1 nM | PI Turnover Agonist (Bombesin Receptor): +

CC(C)C[C@@H](CN[C@@H](CC(C)C)C(N)=O)NC(=O)[C@H](Cc1cnc[nH]1)NC(=O)CNC(=O)[C@@H](NC(=O)[C@H](C)NC(=O)[C@H](Cc1c[nH]c2ccccc12)NC(=O)[C@H](CCC(N)=O)NC(=O)[C@H](CC(N)=O)NC(=O)CNC(=O)[C@H](CC(C)C)NC(=O)[C@H](CCCN=C(N)N)NC(=O)[C@H](CCC(N)=O)NC(=O)[C@@H]1CCC(=O)N1)C(C)C [[Leu^13 .psi.{CH2 NH]Leu^14]bombesin, pGlu--Gln--Arg--Leu--Gly--Asn--Gln--Trp--Ala--Val--Gly--His--Leu.psi.[CH2 N]Leu--NH2, reference compound] ([pGlu]QRLGNQWAVGH-X2)
Kd (bombesin/GRP receptor; [1]): 8 nM

CC(C)C[C@@H](C(N)=O)[S+]([O-])C[C@H](Cc1ccccc1)NC(=O)[C@H](Cc1c[nH]cn1)NC(=O)CNC(=O)[C@@H](NC(=O)[C@H](C)NC(=O)[C@H](Cc1c[nH]c2ccccc12)NC(=O)[C@H](CCC(N)=O)NC(=O)[C@@H]1CCC(=O)N1)C(C)C (single isomer, unassigned) [[Phe^8 .psi.[CH2 S(O)]Leu^9]litorin I, pGlu--Gln--Trp--Ala--Val--Gly--His--Phe.psi.[CH2 S(O)]Leu--NH2]
Kd (bombesin/GRP receptor; [1]): 1.8 nM

CC(C)C[C@@H](C(N)=O)N(C)C[C@H](Cc1ccccc1)NC(=O)[C@H](Cc1c[nH]cn1)NC(=O)CNC(=O)[C@@H](NC(=O)[C@H](C)NC(=O)[C@H](Cc1c[nH]c2ccccc12)NC(=O)[C@H](CCC(N)=O)NC(=O)[C@@H]1CCC(=O)N1)C(C)C [[Phe^8 .psi.[CH2 N(CH3)]Leu^9]litorin] ([pGlu]QWAVGH-X1)
Kd (bombesin/GRP receptor; duplicate, 20 pM 125I-GRP, two-site fit, read-out: Kd, high affinity class of sites (FIG. 2)): 0.08 nM | Kd (bombesin/GRP receptor; duplicate, 20 pM 125I-GRP, two-site fit, read-out: Kd, low affinity class of sites (FIG. 2)): 16 nM | Kd (bombesin/GRP receptor; first of two values in the cell, mouse pancreas, averages of multiple experiments, read-out: Kd (nM), high affinity class of sites): 0.019 nM | Kd (bombesin/GRP receptor; second of two values in the cell, mouse pancreas, averages of multiple experiments, read-out: Kd (nM), low affinity class of sites): 23 nM | receptors in the high affinity state (FIG. 2) (bombesin/GRP receptor; two-site fit, 20 pM 125I-GRP): 20% | PI Turnover Agonist (Bombesin Receptor): + | PI Turnover % Inhibition (Bombesin Receptor): -16% | PI turnover as a percentage of control (FIG. 3) (Bombesin Receptor; triplicate determinations): statistically significant (P<0.005) increase in PI turnover

CC(C)C[C@@H](C(N)=O)[S+]([O-])C[C@H](Cc1ccccc1)NC(=O)[C@H](Cc1c[nH]cn1)NC(=O)CNC(=O)[C@@H](NC(=O)[C@H](C)NC(=O)[C@H](Cc1c[nH]c2ccccc12)NC(=O)[C@H](CCC(N)=O)NC(=O)[C@@H]1CCC(=O)N1)C(C)C (single isomer, unassigned) [[Phe^8 .psi.[CH2 S(O)]Leu^9 ]litorin I] [pGlu--Gln--Trp--Ala--Val--Gly--His--Phe.psi.[CH2 S(O)]Leu--NH2]
PI Turnover % Inhibition (Bombesin Receptor): 53%
